Usually CC50 stands for the concentration that lowers cell viability or growth by half. A high value points to lower toxicity to the cells. A word on the IC50: it is the concentration that inhibits the measured activity by half. For orientation: inhibition means the relative decrease from the control value, in per cent.

A short description of series [1]: Cell viability: resazurin assay. Format: cell-based, human. Conditions: human, HEp2 cells. Put shortly: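 Viability read-out: resazurin fluorescence (ex 545, em 590 nm) after 6 h, following 5-day compound incubation of HEp2 cells (37 °C, 5% CO2, 5% FBS, 0.5% DMSO final). Loss expressed as percentage of vehicle, negative if viability rose; CC50 derived from concentration-response curve where appropriate.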
(Alamar Blue is a resazurin reagent that responds to reducing activity.)

The test system of series [2] is RSV B Washington strain. Kind of series: Assessment of RSV induced CPE in HEp2 cells (RSV B Washington strain). It counts as cell-based. Conditions: human respiratory syncytial virus, HEp2 cells; for IC50: HEp-2, 144 h, 1 MOI, 6 days, read-out: RSV B CPE IC50; for inhibition at 1 µg/mL / inhibition at 0.1 µg/mL: HEp-2; for inhibition at 1 µg/mL: Inhibition (%) at 1 μg/mL, read-out: RSV B CPE % Inhibition; for inhibition at 0.1 µg/mL: Inhibition (%) at 0.1 μg/mL. Put shortly: (§1)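 HEp2 cells were infected at MOI 1 with RSV A2 or RSV B Washington, with compound added at the same time (0.5% DMSO final). Incubation was 5 days for A2 and 6 days for B, then viability was read by resazurin fluorescence (545/590 nm) after 6 h. IC50, IC75 and IC90 came from concentration-response curves.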

Series [3] deals with RSV A2 strain. Nature of the series: Assessment of RSV induced CPE in HEp2 cells (RSV A2 strain). It counts as cell-based. Conditions: human respiratory syncytial virus, HEp2 cells; for IC50: HEp-2, 120 h, 1 MOI, 5 days, read-out: RSV A2 CPE IC50; for inhibition at 0.01 µg/mL / inhibition at 0.1 µg/mL: HEp-2; for inhibition at 0.01 µg/mL: Inhibition (%) at 0.01 μg/mL; for inhibition at 0.1 µg/mL: Inhibition (%) at 0.1 μg/mL, read-out: RSV A2 CPE % Inhibition. Put shortly: as §1

In series [1], `Cc1cnc(N2CCC3(CC2)COC3)c(C(=O)Nc2ccc(C(=O)N3CCc4cc(C(=O)Nc5c(F)cccc5Cl)sc4-c4ccccc43)cc2)c1` [Example 93, N-(2-chloro-6-fluorophenyl)-6-(4-(5-methyl-2-(2-oxa-7-azaspiro[3.5]nonan-7-yl)nicotinamido)benzoyl)-5,6-dihydro-4H-benzo[b]thieno[2,3-d]azepine-2-carboxamide] gave a CC50 at 5 days of over 13.6 µM. For the same compound, in series [2], the IC50 turned out to be 59.3 nM and the inhibition at 1 µg/mL turned out to be 100%. Also, in series [3], the 50% inhibitory concentration (IC50) turned out to be 0.56 nM and at 0.01 µg/mL the inhibition was 98%.
In the same order, the values of `Cc1cccc(F)c1NC(=O)c1cc2c(s1)-c1ccccc1N(C(=O)c1ccc(NC(=O)c3cc(F)cnc3N3CC4(CCOCC4)C3)cc1)CC2` [Example 68, 6-(4-(5-fluoro-2-(7-oxa-2-azaspiro[3.5]nonan-2-yl)nicotinamido)benzoyl)-N-(2-fluoro-6-methylphenyl)-5,6-dihydro-4H-benzo[b]thieno[2,3-d]azepine-2-carboxamide] are over 13.9 µM, 17.1 nM, 100%, 0.087 nM and 90%.
Turning to `O=C(Nc1c(F)cccc1F)c1cc2c(s1)-c1ccccc1N(C(=O)c1ccc(NC(=O)c3cccnc3N3CC4(CCOCC4)C3)cc1)CC2` [Example 19, 6-(4-(2-(7-oxa-2-azaspiro[3.5]nonan-2-yl)nicotinamido)benzoyl)-N-(2,6-difluorophenyl)-5,6-dihydro-4H-benzo[b] thieno[2,3-d]azepine-2-carboxamide], in series [1], the CC50 at 5 days was over 14.2 µM. The IC50 in series [2] worked out at 28 nM; in series [3], 0.14 nM. The inhibition at 0.1 µg/mL in series [2] is 100%; in series [3] it was 88%.
Consider `Cc1cccc(C#N)c1NC(=O)c1cc2c(s1)-c1ccccc1N(C(=O)c1ccc(NC(=O)c3cc4c(nc3N3CC5(CCOCC5)C3)CCC4)cc1F)CC2` [Example 77, 6-(4-(2-(7-oxa-2-azaspiro[3.5]nonan-2-yl)-6,7-dihydro-5H-cyclopenta[b]pyridine-3-carboxamido)-2-fluorobenzoyl)-N-(2-cyano-6-methylphenyl)-5,6-dihydro-4H-benzo[b]thieno [2,3-d]azepine-2-carboxamide], for which the 50% cytotoxic concentration (CC50) at 5 days in series [1] is over 13 µM. In addition, in series [2], the IC50 amounted to 19.2 nM and the inhibition at 1 µg/mL is 92%. Besides, in series [3], the IC50 stood at 4.9 nM and the inhibition at 0.01 µg/mL was determined as 94%.
In the same order, the values of `O=C(Nc1ccccc1F)c1cc2c(s1)-c1ccccc1N(C(=O)c1ccc(NC(=O)c3cc(C4CC4)cnc3N3CC4(CCOCC4)C3)cc1)CC2` [Example 4, 6-(4-(5-Cyclopropyl-2-(7-oxa-2-azaspiro[3.5]nonan-2-yl)nicotinamido)benzoyl)-N-(2-fluorophenyl)-5,6-dihydro-4H-benzo[b]thieno[2,3-d]azepine-2-carboxamide] are over 13.7 µM, 49.3 nM, 83%, 2.1 nM and 100%.
On the same counts, the results for `C=C(C)c1cnc(N2CC3(CCOCC3)C2)c(C(=O)Nc2ccc(C(=O)N3CCc4cc(C(=O)Nc5c(F)cccc5F)sc4-c4ccccc43)cc2)c1` [Example 73, N-(2,6-difluorophenyl)-6-(4-(5-(prop-1-en-2-yl)-2-(7-oxa-2-azaspiro[3.5]nonan-2-yl)nicotinamido)benzoyl)-5,6-dihydro-4H-benzo[b]thieno[2,3-d]azepine-2-carboxamide] are over 13.4 µM, 14.8 nM, 98%, 2.6 nM and 84%.
Compound `Cc1cnc(N2CCC3(CC2)COC3)c(C(=O)Nc2ccc(C(=O)N3CCc4cc(C(=O)Nc5c(C)cccc5F)sc4-c4ccccc43)cc2)c1` [Example 91, N-(2-fluoro-6-methylphenyl)-6-(4-(5-methyl-2-(2-oxa-7-azaspiro[3.5]nonan-7-yl)nicotinamido)benzoyl)-5,6-dihydro-4H-benzo[b]thieno[2,3-d]azepine-2-carboxamide] registered a CC50 at 5 days in series [1] of over 14 µM. Further, in series [2], the IC50 is 393 nM and the inhibition at 1 µg/mL is 100%. Further, in series [3], the IC50 is 1.3 nM and the inhibition at 0.01 µg/mL came out at 100%.
Take `Cc1cc(C(=O)Nc2ccc(C(=O)N3CCc4cc(C(=O)Nc5c(C)cccc5F)sc4-c4ccccc43)cc2)c(N2CC3(CCOCC3)C2)nc1C` [Example 44, 6-(4-(5,6-dimethyl-2-(7-oxa-2-azaspiro[3.5]nonan-2-yl)nicotinamido)benzoyl)-N-(2-fluoro-6-methylphenyl)-5,6-dihydro-4H-benzo[b]thieno[2,3-d]azepine-2-carboxamide]: the CC50 at 5 days in series [1] was over 13.7 µM. Besides, in series [2], the IC50 amounted to 16.2 nM and the inhibition at 1 µg/mL is 76%. In series [3], the IC50 turned out to be 0.13 nM and the inhibition at 0.1 µg/mL was 100%.
In the same order, the values of `Cc1cnc(N2CC3(CCOCC3)C2)c(C(=O)Nc2ccc(C(=O)N3CCc4cc(C(=O)Nc5c(F)cc(F)cc5F)sc4-c4ccccc43)cc2)c1` [Example 48, 6-(4-(5-methyl-2-(7-oxa-2-azaspiro[3.5]nonan-2-yl)nicotinamido)benzoyl)-N-(2,4,6-trifluorophenyl)-5,6-dihydro-4H-benzo[b]thieno[2,3-d]azepine-2-carboxamide] are over 13.6 µM, 1.5 nM, 100%, 0.14 nM and 100%.
In series [1], `O=C(Nc1c(F)cccc1F)c1cc2c(s1)-c1ccccc1N(C(=O)c1ccc(NC(=O)c3cc4ccccc4nc3N3CC4(CCOCC4)C3)cc1)CC2` [Example 86, 6-(4-(2-(7-oxa-2-azaspiro[3.5]nonan-2-yl)quinoline-3-carboxamido)benzoyl)-N-(2,6-difluorophenyl)-5,6-dihydro-4H-benzo[b]thieno[2,3-d]azepine-2-carboxamide] showed a CC50 at 5 days of over 13.2 µM. In series [2], the IC50 amounted to 23 nM and the inhibition at 0.1 µg/mL was found to be 100%. Moreover, in series [3], the IC50 came to 0.17 nM and the inhibition at 0.01 µg/mL stood at 85%.
For `Cc1cccc(F)c1NC(=O)c1cc2c(s1)-c1ccccc1N(C(=O)c1ccc(NC(=O)c3cc(C4CC4)cnc3N3CC4(CCOCC4)C3)cc1)CC2` [Example 11, 6-(4-(5-Cyclopropyl-2-(7-oxa-2-azaspiro[3,5]nonan-2-yl)nicotinamido)benzoyl)-N-(2-fluoro-6-methylphenyl)-5,6-dihydro-4H-benzo[b]thieno[2,3-d]azepine-2-carboxamide], in series [1], the CC50 at 5 days was over 13.5 µM. In addition, in series [2], the IC50 is 25.9 nM and the inhibition at 1 µg/mL turned out to be 95%. In series [3], the IC50 was found to be 0.28 nM and the inhibition at 0.1 µg/mL came to 93%.
On the same counts, the results for `O=C(Nc1c(F)cc(F)cc1F)c1cc2c(s1)-c1ccccc1N(C(=O)c1ccc(NC(=O)c3cccnc3N3CC4(CCOCC4)C3)cc1)CC2` [Example 28, 6-(4-(2-(7-oxa-2-azaspiro[3.5]nonan-2-yl)nicotinamido)benzoyl)-N-(2,4,6-trifluorophenyl)-5,6-dihydro-4H-benzo[b] thieno[2,3-d]azepine-2-carboxamide] are over 13.8 µM, 41.4 nM, 66%, 0.17 nM and 96%.
Consider `COCCOc1cccc(F)c1NC(=O)c1cc2c(s1)-c1ccccc1N(C(=O)c1ccc(NC(=O)c3cc(C)cnc3N3CC4(CCOCC4)C3)cc1)CC2` [Example 55, N-(2-fluoro-6-(2-methoxyethoxy)phenyl)-6-(4-(5-methyl-2-(7-oxa-2-azaspiro[3.5]nonan-2-yl)nicotinamido)benzoyl)-5,6-dihydro-4H-benzo[b]thieno[2,3-d]azepine-2-carboxamide], for which, in series [1], the CC50 at 5 days is over 12.9 µM. Besides, in series [2], the concentration for half-maximal inhibition (IC50) was 16.2 nM and the inhibition at 1 µg/mL came to 100%. Moreover, in series [3], the IC50 worked out at 0.15 nM and the inhibition at 0.01 µg/mL was found to be 100%.
In the case of `Cc1cccc(C)c1NC(=O)c1cc2c(s1)-c1ccccc1N(C(=O)c1ccc(NC(=O)c3cccnc3N3CC4(CCOCC4)C3)cc1)CC2` [Example 24, 6-(4-(2-(7-oxa-2-azaspiro[3.5]nonan-2-yl)nicotinamido)benzoyl)-N-(2,6-dimethylphenyl)-5,6-dihydro-4H-benzo[b] thieno[2,3-d]azepine-2-carboxamide], in series [1], the half-maximal cytotoxic concentration (CC50) at 5 days was over 14.3 µM. Also, in series [2], the IC50 was determined as 19.6 nM and the inhibition at 1 µg/mL turned out to be 65%. Further, in series [3], the IC50 came to 0.57 nM and the inhibition at 0.1 µg/mL came to 88%.
In the same order, the values of `Cc1cnc(N2CC3(CCOCC3)C2)c(C(=O)Nc2ccc(C(=O)N3CCc4cc(C(=O)Nc5c(Cl)cccc5Cl)sc4-c4ccccc43)cc2)c1` [Example 57, N-(2,6-dichlorophenyl)-6-(4-(5-methyl-2-(7-oxa-2-aza-spiro[3.5]nonan-2-yl)nicotinamido)benzoyl)-5,6-dihydro-4H-benzo[b]thieno[2,3-d]azepine-2-carboxamide] are over 13.3 µM, 1.4 nM, 74%, 0.13 nM and 91%.

The values above are taken from patent US10189863B2, “5,6-dihydro-4H-benzo[b]thieno-[2,3-d]azepine derivatives” (PULMOCIDE LIMITED, priority 2014, dated 2019).
